One test has as its system Mycosphaerella arachidis. As to the kind of experiment: Mycosphaerella arachidis syn. Cercospora arachidicola (brown leaf spot of peanut), liquid culture growth inhibition. The class given is cell-based. To be noted: nutrient broth (PDB), approximately 5-6 days, photometric at 620 nm, compared to untreated control. As for the experimental part:
Conidia of the fungus from cryogenic storage were directly mixed into nutrient broth (PDB potato dextrose broth). A DMSO solution of the test compounds was placed into a microtiter plate (96-well format) and the nutrient broth containing the fungal spores was added to it. The test plates were incubated at 24° C. and the inhibition of growth was determined photometrically after approximately 5-6 […] at 620 nm.

For the next test, the system named is Monographella nivalis. The test is described as follows: Monographella nivalis syn. Microdochium nivale (snow mould, foot rot of cereals), liquid culture growth inhibition. The class given is cell-based. To be noted: nutrient broth (PDB), 72 hrs, photometric at 620 nm, compared to untreated control. How it is done:
Conidia of the fungus from cryogenic storage were directly mixed into nutrient broth (PDB potato dextrose broth). A DMSO solution of the test compounds was placed into a microtiter plate (96-well format) and the nutrient broth containing the fungal spores was added to it. The test plates were incubated at 24° C. and the inhibition of growth was determined photometrically after 72 hrs at 620 nm. […] Cercospora arachidicola (Brown Leaf Spot of Peanut): […]

Test [1] concerns Puccinia recondita f. sp. tritici. As to the kind of experiment: Puccinia recondita (brown rust), preventative, wheat leaf segments. In kind it is in vivo. The note with it: foliar, 192 h, 8 dpi, compared to untreated control. As for the experimental part: Wheat leaf segments are placed on agar in multiwell plates (24-well format) and sprayed with test solutions. After drying, the leaf segments are inoculated with a spore suspension of the fungus. After appropriate incubation the activity of a compound is assessed 8 dpi (days after inoculation) as preventative fungicidal activity.

Test [2] has as its system Erysiphe graminis f. sp. tritici. As to the kind of experiment: Erysiphe graminis f. sp. tritici (wheat powdery mildew), wheat leaf segments, preventive. The class given is in vivo. The note with it: Blumeria graminis, foliar, 168 h, 7 dpi, compared to untreated control. As for the experimental part: Wheat leaf segments are placed on agar in multiwell plates (24-well format) and sprayed with test solutions. After drying, the leaf disks are inoculated with spores of the fungus. After appropriate incubation the activity of a compound is assessed 7 dpi (days post inoculation) as preventive fungicidal activity.

The next test concerns Plasmopara viticola. As to the kind of experiment: Plasmopara viticola (downy mildew of grapevine), grape vine leaf disks, preventive. The class given is in vivo. To be noted: foliar, 168 h, 7 dpi, compared to untreated control. As for the experimental part:
Grape vine leaf disks are placed on agar in multiwell plates (24-well format) and sprayed with test solutions. After drying, the leaf disks are inoculated with a spore suspension of the fungus. After appropriate incubation the activity of a compound is assessed 7 dpi (days after inoculation) as preventive fungicidal activity.

The test system of another test is Glomerella lagenarium. The test is described as follows: Glomerella lagenarium syn. Colletotrichum lagenarium (anthracnose of cucurbits), liquid culture growth inhibition. In kind it is cell-based. The note with it: Colletotrichum orbiculare, nutrient broth (PDB), 72 hrs, photometric at 620 nm, compared to untreated control. How it is done: Glomerella lagenarium Syn. Colletotrichum lagenarium (Anthracnose of Cucurbits): Conidia of the fungus from cryogenic storage were directly mixed into nutrient broth (PDB potato dextrose broth). A DMSO solution of the test compounds was placed into a microtiter plate (96-well format) and the nutrient broth containing the fungal spores was added to it. The test plates were incubated at 24° C. and the inhibition of growth was determined photometrically after 72 hrs at 620 nm. […]

The next test concerns Puccinia recondita. The test is described as follows: Example C: comparative activity against Puccinia recondita (brown rust), curative, wheat leaf segments. The class given is in vivo. The note with it: 8 dpi. How it is done: Method; Wheat leaf segments are placed on agar in multiwell plates (24-well format). The leaf segments are inoculated with a spore suspension of the fungus and sprayed with test solutions 1 day after inoculation. After appropriate incubation the activity of a compound is assessed 8 dpi (days after inoculation) as curative fungicidal activity. The data are presented as the percentage of disease control of each compound for the biological tests and testing rates described below in table H.

In test [3] the test system is Phakopsora pachyrhizi. As to the kind of experiment: Example D: comparative activity against Phakopsora pachyrhizi (soybean rust), soybean plants sprayed, leaf disks cut from treated plants. The class given is in vivo. The note with it: 0.1% OCHIMA, leaf disks cut one day after application, approx. 12 dpi. How it is done:
Method: Soybean plants are sprayed in a spray chamber with formulated DMSO compound solutions which are diluted to the appropriate concentration with 0.1% […] (adjuvant comprising polyethoxylated sorbitol hexaoleate and tris(2-ethylhexyl) phosphate) just before spraying. Leaf disks are cut from treated plants and placed on agar into 24-well plates one day after application. After, the leaf disks are inoculated with a spore suspension of the fungus. After appropriate incubation the activity of a compound is assessed approx. 12 dpi (days after inoculation) as preventive fungicidal activity. The data are presented as the percentage of disease control of each compound for the biological tests and testing rates described below in Table 1.

Test [4] deals with Phakopsora pachyrhizi. As to the kind of experiment: Example E: comparative activity against Phakopsora pachyrhizi (soybean rust), soybean leaf disks sprayed. In kind it is in vivo. The note with it: 0.025% Tween20, approx. 12 dpi. How it is done:
Method: Compounds to be tested are prepared as DMSO solutions which are diluted to the appropriate concentration with 0.025% Tween20 just before spraying. Soybean leaf disks are placed on agar in multiwell plates (24-well format) and sprayed with test solutions. After drying, the leaf disks are inoculated with a spore suspension of the fungus. After appropriate incubation the activity of a compound is assessed approx. 12 dpi (days after inoculation) as preventive fungicidal activity. The data are presented as the percentage of disease control of each compound for the biological tests and testing rates described below in Table J.

The subject of another test is Pyricularia oryzae. The test is described as follows: whole plant or invertebrate. The class given is in vivo. The note with it: foliar, 120 h, read-out: control of Pyricularia oryzae.
Test [5] relates to Puccinia recondita f. sp. tritici. As to the kind of experiment: Puccinia recondita (brown rust), curative, wheat leaf segments. In kind it is in vivo. The note with it: foliar, 192 h, sprayed 1 day after inoculation, 8 dpi, compared to untreated control. How it is done: Wheat leaf segments are placed on agar in multiwell plates (24-well format). The leaf segments are inoculated with a spore suspension of the fungus and sprayed with test solutions 1 day after inoculation. After appropriate incubation the activity of a compound is assessed 8 dpi (days after inoculation) as curative fungicidal activity.

In the case of `CO/C=C(\Oc1cc(C2=CCC(O)CC2)ccc1C)C(=O)OC` (stereo not drawn) [F.8, methyl (Z)-2-[5-(4-hydroxycyclohexen-1-yl)-2-methyl-phenoxy]-3-methoxy-prop-2-enoate], the inhibition of growth at 20 ppm with Mycosphaerella arachidis and in the test with Monographella nivalis was not below 80% in each case. In addition, the pest or weed control at 200 ppm in test [1] and in [2] was not below 80% throughout.
For `CO/C=C(\Oc1cc(C2=CCCCCC2)ccc1C)C(=O)OC` [F.5, methyl (Z)-2-[5-(cyclohepten-1-yl)-2-methyl-phenoxy]-3-methoxy-prop-2-enoate], the inhibition of growth at 20 ppm in the test on Mycosphaerella arachidis, in the test with Monographella nivalis and in the test on Glomerella lagenarium was not below 80% each time. Further, the pest or weed control at 200 ppm (in the test on Plasmopara viticola; in [2]) was not below 80% throughout.
For the compound `CO/C=C(\Oc1cc(C#CC2CCCCC2)ccc1C)C(=O)OC` [Compound X-1, reference compound], the “control (%) Puccinia recondita (Brown rust), curative” value in the test with Puccinia recondita (20 ppm), in the test on Puccinia recondita (60 ppm) and in the test on Puccinia recondita (200 ppm) was 0% in each case. The “control (%) Phakopsora pachyrhizi (Soybean rust)” value (“control (%) Phakopsora pachyrhizi” for short) is recorded as 0% with Phakopsora pachyrhizi [3] (6 ppm); 0% with Phakopsora pachyrhizi [3] (20 ppm); 0% with Phakopsora pachyrhizi [3] (60 ppm); 63% with Phakopsora pachyrhizi [3] (200 ppm); 0% in the test with Phakopsora pachyrhizi [4] (0.6 ppm); 0% with Phakopsora pachyrhizi [4] (2 ppm). Moreover, the “control (%) Phakopsora pachyrhizi” value in the test on Phakopsora pachyrhizi [4] (6 ppm) was 35%; in the test on Phakopsora pachyrhizi [4] (20 ppm), 80%; in the test with Phakopsora pachyrhizi [4] (60 ppm), 100%; with Phakopsora pachyrhizi [4] (200 ppm) it was 100%.
Turning to `CO/C=C(\Oc1cc(C2CCC(C(F)(F)F)CC2)ccc1C)C(=O)OC` (stereo not drawn) [E.1, methyl (Z)-3-methoxy-2-[2-methyl-5-[4-(trifluoromethyl)cyclohexyl]phenoxy] prop-2-enoate], the inhibition of growth at 20 ppm in the test with Mycosphaerella arachidis and in the test with Monographella nivalis was not below 80% each time. The pest or weed control at 200 ppm in [1] and in test [2] was not below 80% each time.
Take `CO/C=C(\Oc1cc(C2=CCC(C)(C)CC2)ccc1C)C(=O)OC` [F.10, methyl (Z)-2-[5-(4,4-dimethylcyclohexen-1-yl)-2-methyl-phenoxy]-3-methoxy-prop-2-enoate]: the inhibition of growth at 20 ppm in the test with Mycosphaerella arachidis, in the test with Monographella nivalis and in the test with Glomerella lagenarium was not below 80% each time. Moreover, the pest or weed control at 200 ppm (in [1]; in the test with Plasmopara viticola; in [2]) was not below 80% in each case.
As to `CO/C=C(\Oc1cc(C2CCC(F)(F)CC2)ccc1C)C(=O)OC` [E.6, methyl (Z)-2-[5-(4,4-difluorocyclohexyl)-2-methyl-phenoxy]-3-methoxy-prop-2-enoate], the inhibition of growth at 20 ppm with Mycosphaerella arachidis, in the test on Monographella nivalis and in the test with Glomerella lagenarium was not below 80% in each case. Also, the pest or weed control at 200 ppm (in test [1]; in the test on Plasmopara viticola; in the test on Pyricularia oryzae; in [2]) was not below 80% each time.
As for `CO/C=C(\Oc1cc(C2CCC(C(C)C)CC2)ccc1C)C(=O)OC` (stereo not drawn) [E.17, methyl (Z)-2-[5-(4-isopropylcyclohexyl)-2-methyl-phenoxy]-3-methoxy-prop-2-enoate], the inhibition of growth at 20 ppm with Mycosphaerella arachidis, with Monographella nivalis and with Glomerella lagenarium was not below 80% in each case. In test [2], the pest or weed control at 200 ppm was not below 80%.
Turning to `CO/C=C(\Oc1cc(C2CCCCC2)ccc1OC)C(=O)OC` [E.10, methyl (Z)-2-(5-cyclohexy1-2-methoxy-phenoxy)-3-methoxy-prop-2-enoate], the inhibition of growth at 20 ppm in the test on Mycosphaerella arachidis and in the test with Monographella nivalis was not below 80% in each case. Also, the pest or weed control at 200 ppm (in test [1]; in the test on Plasmopara viticola; in test [2]) was not below 80% each time.
Consider `CO/C=C(\Oc1cc(C2CCCCC2)ccc1F)C(=O)OC` [E.11, methyl (Z)-2-(5-cyclohexy1-2-fluoro-phenoxy)-3-methoxy-prop-2-enoate], for which the inhibition of growth at 20 ppm in the test on Mycosphaerella arachidis, in the test on Monographella nivalis and in the test with Glomerella lagenarium was not below 80% in each case. For the same compound, the pest or weed control at 200 ppm (in the test with Plasmopara viticola; in test [2]) was not below 80% in each case.
For the compound `CO/C=C(\Oc1cc(C2CCCCC2)ccc1Br)C(=O)OC` [E.8, methyl (Z)-2-(2-bromo-5-cyclohexyl-phenoxy)-3-methoxy-prop-2-enoate], the inhibition of growth at 20 ppm in the test with Mycosphaerella arachidis and in the test on Monographella nivalis was not below 80% each time. Moreover, the pest or weed control at 200 ppm (in test [1]; in the test on Plasmopara viticola; in test [2]) was not below 80% in each case.
Turning to `CO/C=C(\Oc1cc(C2CCC(OC)CC2)ccc1C)C(=O)OC` (stereo not drawn) [E.19, methyl (Z)-3-methoxy-2-[5-(4-methoxycyclohexyl)-2-methyl-phenoxy]prop-2-enoate], the inhibition of growth at 20 ppm in the test with Mycosphaerella arachidis, in the test with Monographella nivalis and in the test with Glomerella lagenarium was not below 80% throughout. Besides, the pest or weed control at 200 ppm (in [1]; in the test with Plasmopara viticola; in test [5]; in test [2]) was not below 80% in each case.
As for `CO/C=C(\Oc1cccc(C(C)(C)C)c1)C(=O)OC` [Compound X-2, reference compound], the “control (%) Puccinia recondita (Brown rust), curative” value in the test with Puccinia recondita (20 ppm), in the test on Puccinia recondita (60 ppm) and in the test on Puccinia recondita (200 ppm) was 0% throughout. Besides, the “control (%) Phakopsora pachyrhizi” value in the test on Phakopsora pachyrhizi [3] (6 ppm), with Phakopsora pachyrhizi [3] (20 ppm), in the test with Phakopsora pachyrhizi [3] (60 ppm), in the test on Phakopsora pachyrhizi [3] (200 ppm), in the test with Phakopsora pachyrhizi [4] (0.6 ppm) and in the test on Phakopsora pachyrhizi [4] (2 ppm) was 0% in each case. Further, the “control (%) Phakopsora pachyrhizi” value in the test on Phakopsora pachyrhizi [4] (6 ppm) was found to be 0%; in the test on Phakopsora pachyrhizi [4] (20 ppm), 0%; in the test with Phakopsora pachyrhizi [4] (60 ppm), 10%; in the test with Phakopsora pachyrhizi [4] (200 ppm) it was 10%.

For the origin of these results see US12262710B2, “Fungicidal compounds” (SYNGENTA CROP PROTECTION AG, priority 2019, dated 2025).
